Patent US9090899B2, “Methods of diagnosing and treating prostate cancer characterized by NDRG1-ERG fusion” (CORNELL UNIVERSITY, priority 2009, dated 2015)

What was measured:
Assay type in all cases: cell-based
SLC45A3 mRNA = test: Hormone treatment of LNCaP cells, SLC45A3 mRNA by TAQMAN quantitative RT-PCR; conditions: for Induction of SLC45A3 mRNA: LNCaP cells, 3 hours, 10 nM 17β-estradiol or 10 nM DPN; for SLC45A3 mRNA expression: serum-starved LNCaP cells, 1 nM R1881 or 10 nM E2, 3, 12 and 24 h, fold change against vehicle (Ethanol), normalized against TCFL1
Protocol: (§1) FIG. 6. Hormone treatment of LNCaP cells induced SLC45A3 and NDRG1 mRNA expression. SLC45A3 (A and C) or NDRG1 (B and D) mRNA expression was induced upon stimulation with synthetic androgen (R1881) and 17β-estradiol (E2). Serum-starved LNCaP cells were stimulated with 1 nM R1881, 1 nM R1881 in combination with 10 μM Flutamide (A and B), 10 nM E2 or 10 nM diarylpropionitrile (DPN) (C and D) for 3, 12 and 24 h. Samples were run in triplicate and normalized against TCFL1. Columns indicate the mean fold change of induction of three biological replicates against vehicle (Ethanol) only treated cells for the respective time points±SEM.
(§2) Hormone Treatment of LNCaP—The prostate cancer cell line LNCaP was obtained from ATCC (Manassas, Va.; cat.#CRL-1740) and maintained according to the suppliers instructions. For hormonal treatment, cells were plated (500,000 cells/10 cm^2) in the presence of complete growth medium supplemented with 1% Penicillin/Streptomycin. Cells were starved for 48 h in charcoal-stripped (CS) medium (RPMI-1640 1×, 5% charcoal-stripped […], 1% Penicillin/Streptomycin) and then treated with R1881 (1 nM), 17β-estradiol (10 nM), diarylpropionitrile (DPN, 10 nM) or ethanol vehicle for 3, 12, and 24 hours. RNA was extracted using the TRIzol Reagent (Invitrogen, Carlsbad, Calif.), subjected to DNase treatment (DNA-free™ Kit, Applied Biosystems) according to the manufacturer's instructions. To test for the specificity of androgen-stimulation, cells were treated with10 μM Flutamide for 2 hours and then treated with R1881 as described above. TAQMAN expression assays (Applied Biosystems) were used to quantify relative levels of SL45A3, NDRG1, PSA (KLK3) and IGF1R.

NDRG1 mRNA = test: Hormone treatment of LNCaP cells, NDRG1 mRNA by TAQMAN quantitative RT-PCR; conditions: for Induction of NDRG1 mRNA: LNCaP cells, 12 hours, 10 nM 17β-estradiol or 10 nM DPN; for NDRG1 mRNA expression: serum-starved LNCaP cells, 1 nM R1881 or 10 nM E2, 3, 12 and 24 h, fold change against vehicle (Ethanol), normalized against TCFL1
Protocol: as §1, §2

IGF2R mRNA = test: Hormone treatment of LNCaP cells, IGF2R mRNA by TAQMAN quantitative RT-PCR; conditions: serum-starved LNCaP cells; 1 nM R1881 or 10 nM E2; 3, 12 and 24 h; fold change against vehicle (Ethanol), normalized against TCFL1
Protocol: (§3) FIG. 7. Androgen and 17β-estradiol (E2) signaling of known target genes in LNCaP cells. IGF2R (A) and PSA (B) mRNA expression was induced upon stimulation with synthetic androgen (R1881) and E2. Serum-starved LNCaP cells were stimulated with 1 nM R1881, 1 nM R1881 in combination with 10 μM Flutamide, 10 nM E2 or 10 nM diarylpropionitrile (DPN) for 3, 12 and 24 h. Total RNA was extracted and used for quantitative RT-PCR using TAQMAN assay. Samples were run in triplicate and normalized against TCFL1. Columns indicate the mean fold change of induction of three biological replicates against vehicle (Ethanol) only treated cells for the respective time points±SEM.
as §2, with “RNA was extracted using the TRIzol Reagent (Invitrogen, Carlsbad, Calif.), subjected to DNase treatment (DNA-free™ Kit, Applied Biosystems) according to the manufacturer's instructions. To test for the specificity of androgen-stimulation, cells were treated with10 μM Flutamide for 2 hours and then treated with R1881 as described above.” left out

PSA (KLK3) mRNA = test: Hormone treatment of LNCaP cells, PSA mRNA by TAQMAN quantitative RT-PCR; conditions: serum-starved LNCaP cells; 1 nM R1881 or 10 nM E2; 3, 12 and 24 h; fold change against vehicle (Ethanol), normalized against TCFL1
Protocol: as §3
as §2, with “RNA was extracted using the TRIzol Reagent (Invitrogen, Carlsbad, Calif.), subjected to DNase treatment (DNA-free™ Kit, Applied Biosystems) according to the manufacturer's instructions. To test for the specificity of androgen-stimulation, cells were treated with10 μM Flutamide for 2 hours and then treated with R1881 as described above.” left out

Row | SMILES | Induction of SLC45A3 mRNA (SLC45A3 mRNA) | SLC45A3 mRNA expression (SLC45A3 mRNA) | Induction of NDRG1 mRNA (NDRG1 mRNA) | NDRG1 mRNA expression (NDRG1 mRNA) | IGF2R mRNA expression (IGF2R mRNA) | PSA mRNA expression (PSA (KLK3) mRNA)
1 | C[C@]12CC[C@@H]3c4ccc(O)cc4CC[C@H]3[C@@H]1CC[C@@H]2O [17β-estradiol] | observed | induced | observed | induced | induced | induced
2 | C[C@]1(O)CC[C@H]2[C@@H]3CCC4=CC(=O)CCC4=C3C=C[C@@]21C [R1881] | – | induced | – | induced | induced | induced
3 | N#CC(Cc1ccc(O)cc1)c1ccc(O)cc1 (stereo not drawn) [DPN, diarylpropionitrile] | not | – | not | – | – | –
